Reference: the supplement of paper PMC10307832

Experiments:
Assay in all cases: relative viability (nuclei count vs DMSO), 5 days (fraction); higher = more cells survive
AZD5582 + Navitoclax = compound: C[C@@H](C(=O)N[C@@H](C1CCCCC1)C(=O)N2CCC[C@H]2C(=O)N[C@@H]3[C@@H](CC4=CC=CC=C34)OCC#CC#CCO[C@@H]5CC6=CC=CC=C6[C@@H]5NC(=O)[C@@H]7CCCN7C(=O)[C@H](C8CCCCC8)NC(=O)[C@H](C)NC)NC [AZD5582] + CC1(C)CCC(c2ccc(Cl)cc2)=C(CN2CCN(c3ccc(C(=O)NS(=O)(=O)c4ccc(N[C@H](CCN5CCOCC5)CSc5ccccc5)c(S(=O)(=O)C(F)(F)F)c4)cc3)CC2)C1 [Navitoclax] (partner 0.5 µM)
How it was run: (§1)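 Values are medians from duplicate plates. Each reflects relative viability, defined as the nuclei count of treated wells over that of vehicle wells. Lung cancer cell lines in 1536-well plates were pin-tool dosed one day after seeding with one drug alone or with a fixed anchor-drug dose plus five library-drug doses (not always all listed) in √10 steps, then fixed, stained and imaged at 4× after 5 days.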

AZD5582 + Lapatinib = compound: C[C@@H](C(=O)N[C@@H](C1CCCCC1)C(=O)N2CCC[C@H]2C(=O)N[C@@H]3[C@@H](CC4=CC=CC=C34)OCC#CC#CCO[C@@H]5CC6=CC=CC=C6[C@@H]5NC(=O)[C@@H]7CCCN7C(=O)[C@H](C8CCCCC8)NC(=O)[C@H](C)NC)NC [AZD5582] + CS(=O)(=O)CCNCc1ccc(-c2ccc3ncnc(Nc4ccc(OCc5cccc(F)c5)c(Cl)c4)c3c2)o1 [Lapatinib] (partner 2 µM)
How it was run: as §1

[1] = compound: Cn1nnc2c(C(N)=O)ncn2c1=O [Temozolomide] + CCNC(=O)c1noc(-c2cc(C(C)C)c(O)cc2O)c1-c1ccc(CN2CCOCC2)cc1 [Luminespib] (partner 0.01 µM)
How it was run: as §1

Temozolomide + Dasatinib = compound: Cn1nnc2c(C(N)=O)ncn2c1=O [Temozolomide] + Cc1nc(Nc2ncc(C(=O)Nc3c(C)cccc3Cl)s2)cc(N2CCN(CCO)CC2)n1 [Dasatinib] (partner 0.075 µM)
How it was run: as §1

Cell Line	relative viability (AZD5582 + Navitoclax; first compound 0.001581 µM)	relative viability (AZD5582 + Navitoclax; first compound 0.005 µM)	relative viability (AZD5582 + Navitoclax; first compound 0.01581 µM)	relative viability (AZD5582 + Navitoclax; first compound 0.05 µM)	relative viability (AZD5582 + Lapatinib; first compound 0.001581 µM)	relative viability (AZD5582 + Lapatinib; first compound 0.005 µM)	relative viability (AZD5582 + Lapatinib; first compound 0.01581 µM)	relative viability (AZD5582 + Lapatinib; first compound 0.05 µM)	relative viability ([1]; first compound 0.2 µM)	relative viability ([1]; first compound 0.6325 µM)	relative viability ([1]; first compound 2 µM)	relative viability ([1]; first compound 6.325 µM)	relative viability ([1]; first compound 20 µM)	relative viability (Temozolomide + Dasatinib; first compound 0.2 µM)	relative viability (Temozolomide + Dasatinib; first compound 0.6325 µM)	relative viability (Temozolomide + Dasatinib; first compound 2 µM)	relative viability (Temozolomide + Dasatinib; first compound 6.325 µM)	relative viability (Temozolomide + Dasatinib; first compound 20 µM)
NCI-H1944	0.985	1.13	1.08	1.11	0.767	0.961	0.82	0.882	0.59	0.829	0.907	0.729	0.711	0.218	0.196	0.223	0.213	0.192
NCI-H1651	0.981	1	1.21	1.14	0.862	1.03	0.724	0.988	0.956	0.935	0.578	0.662	1.05	0.418	0.464	0.377	0.356	0.529
NCI-H2347	0.747	0.941	0.791	0.748	0.882	0.944	0.818	0.712	0.417	0.414	0.608	0.488	0.322	0.328	0.329	0.298	0.303	0.282
HOP-62	0.945	0.917	1.08	1.14	0.748	1.06	1.02	0.958	0.839	0.88	0.988	0.93	0.968	0.744	0.759	0.73	0.609	0.711
